“And” between values parts separate entries of the source, which are not always exact repeats. Equal values may be shown once.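 Following 48 hours of exposure in 96-well plates, responses at five concentrations were used to interpolate endpoints linearly. Abbreviation: GI50, concentration required for 50% inhibition of growth. TGI: concentration producing complete growth inhibition.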
Tests used:
Assay in all cases: inhibition of tumour cell growth, NCI panel, 48 h
HCT-15 colon = tested on: HCT-15 colon
OVCAR-4 ovarian = tested on: OVCAR-4 ovarian
SN12C renal = tested on: SN12C renal
DMS 273 small cell lung = tested on: DMS 273 small cell lung
786-0 renal = tested on: 786-0 renal
SNB-78 CNS = tested on: SNB-78 CNS
MALME-3M melanoma = tested on: MALME-3M melanoma
A549 NSCLC = tested on: A549 NSCLC
SF-539 CNS = tested on: SF-539 CNS
U251 CNS = tested on: U251 CNS
CCRF-CEM leukemia = tested on: CCRF-CEM leukemia
UO-31 renal = tested on: UO-31 renal
KM20L2 colon = tested on: KM20L2 colon
SK-MEL-5 melanoma = tested on: SK-MEL-5 melanoma
OVCAR-5 ovarian = tested on: OVCAR-5 ovarian
RXF 393 renal = tested on: RXF 393 renal
SK-MEL-28 melanoma = tested on: SK-MEL-28 melanoma
SW-620 colon = tested on: SW-620 colon
MOLT-4 leukemia = tested on: MOLT-4 leukemia
HOP-92 NSCLC = tested on: HOP-92 NSCLC
SF-295 CNS = tested on: SF-295 CNS
KM12 colon = tested on: KM12 colon
K-562 leukemia = tested on: K-562 leukemia
UACC-62 melanoma = tested on: UACC-62 melanoma
OVCAR-8 ovarian = tested on: OVCAR-8 ovarian
SNB-75 CNS = tested on: SNB-75 CNS
NCI-H226 lung = tested on: NCI-H226 lung
SK-OV-3 ovarian = tested on: SK-OV-3 ovarian
UACC-257 melanoma = tested on: UACC-257 melanoma
IGROV1 ovarian = tested on: IGROV1 ovarian
HCT-116 colon = tested on: HCT-116 colon
TK-10 renal = tested on: TK-10 renal
CAKI-1 renal = tested on: CAKI-1 renal
NCI-H460 lung = tested on: NCI-H460 lung
DMS 114 small cell lung = tested on: DMS 114 small cell lung
HCC-2998 colon = tested on: HCC-2998 colon
OVCAR-3 ovarian = tested on: OVCAR-3 ovarian
NCI-H522 lung = tested on: NCI-H522 lung
SF-268 CNS = tested on: SF-268 CNS
LXFL 529 NSCLC = tested on: LXFL 529 NSCLC
SK-MEL-2 melanoma = tested on: SK-MEL-2 melanoma
EKVX NSCLC = tested on: EKVX NSCLC
HOP-62 NSCLC = tested on: HOP-62 NSCLC
M14 melanoma = tested on: M14 melanoma
DLD-1 colon = tested on: DLD-1 colon
SNB-19 CNS = tested on: SNB-19 CNS
A498 renal = tested on: A498 renal
LOX IMVI melanoma = tested on: LOX IMVI melanoma
COLO 205 colon = tested on: COLO 205 colon
MDA-N = tested on: MDA-N
MDA-MB-231 breast = tested on: MDA-MB-231 breast
HT29 colon = tested on: HT29 colon
ACHN renal = tested on: ACHN renal
NCI-H23 lung = tested on: NCI-H23 lung
MDA-MB-435 = tested on: MDA-MB-435
HL-60(TB) leukemia = tested on: HL-60(TB) leukemia
MCF7 breast = tested on: MCF7 breast
SR leukemia = tested on: SR leukemia
RPMI-8226 leukemia = tested on: RPMI-8226 leukemia
NCI/ADR-RES ovarian = tested on: NCI/ADR-RES ovarian
T-47D breast = tested on: T-47D breast
PC-3 prostate = tested on: PC-3 prostate
BT-549 breast = tested on: BT-549 breast
DU-145 prostate = tested on: DU-145 prostate
HS 578T breast = tested on: HS 578T breast
M19-MEL melanoma = tested on: M19-MEL melanoma

O=C1c2cccc3cc([N+](=O)[O-])cc(c23)C(=O)N1CCNCCNCCNCCN1C(=O)c2cccc3cc([N+](=O)[O-])cc(c23)C1=O
TGI (HCT-15 colon): 1.08 µM
GI50 (OVCAR-4 ovarian): < 0.001 µM
TGI (OVCAR-4 ovarian): 0.0473 µM and 0.415 µM
GI50 (SN12C renal): 0.0367 µM
TGI (SN12C renal): 2.77 µM and 2.65 µM
TGI (DMS 273 small cell lung): 0.177 µM and 0.23 µM
TGI (786-0 renal): 1.08 µM and 0.612 µM
GI50 (SNB-78 CNS): 0.0474 µM
TGI (SNB-78 CNS): 0.399 µM and 0.686 µM
TGI (MALME-3M melanoma): 0.297 µM
TGI (A549 NSCLC): 0.287 µM and 0.196 µM
TGI (SF-539 CNS): 0.304 µM and 0.357 µM
TGI (U251 CNS): 0.0206 µM
TGI (CCRF-CEM leukemia): 0.635 µM
TGI (UO-31 renal): 2.16 µM
TGI (KM20L2 colon): 0.576 µM
GI50 (SK-MEL-5 melanoma): 0.0176 µM
TGI (SK-MEL-5 melanoma): 1.52 µM and 0.174 µM
TGI (OVCAR-5 ovarian): 0.326 µM
GI50 (RXF 393 renal): 0.0162 µM
TGI (RXF 393 renal): 0.269 µM and 0.169 µM
TGI (SK-MEL-28 melanoma): 0.338 µM and 0.279 µM
TGI (SW-620 colon): 0.449 µM and 0.534 µM
TGI (MOLT-4 leukemia): 1.13 µM
TGI (HOP-92 NSCLC): 0.112 µM
TGI (SF-295 CNS): 0.422 µM and 0.465 µM
TGI (KM12 colon): 0.668 µM and 4.47 µM
TGI (K-562 leukemia): 0.229 µM
TGI (UACC-62 melanoma): 0.106 µM
TGI (OVCAR-8 ovarian): 0.512 µM
TGI (SNB-75 CNS): 0.133 µM
TGI (NCI-H226 lung): 0.309 µM and 0.315 µM
GI50 (SK-OV-3 ovarian): 0.0273 µM
TGI (SK-OV-3 ovarian): 0.341 µM and 0.598 µM
GI50 (UACC-257 melanoma): 0.0979 µM
TGI (UACC-257 melanoma): 0.184 µM and 0.334 µM
TGI (IGROV1 ovarian): 0.205 µM
TGI (HCT-116 colon): 1.08 µM
TGI (TK-10 renal): 0.321 µM
TGI (CAKI-1 renal): 0.548 µM
TGI (NCI-H460 lung): 0.0413 µM
TGI (DMS 114 small cell lung): 0.41 µM and 0.264 µM
TGI (HCC-2998 colon): 0.226 µM
TGI (OVCAR-3 ovarian): 0.343 µM and 0.94 µM
GI50 (NCI-H522 lung): < 0.001 µM
TGI (NCI-H522 lung): 0.101 µM and 0.317 µM
TGI (SF-268 CNS): 0.7 µM
TGI (LXFL 529 NSCLC): 0.496 µM
TGI (SK-MEL-2 melanoma): 0.283 µM
TGI (EKVX NSCLC): 0.88 µM
TGI (HOP-62 NSCLC): 0.216 µM and 0.444 µM
TGI (M14 melanoma): 0.161 µM
TGI (DLD-1 colon): 0.272 µM
TGI (SNB-19 CNS): 2.34 µM and 0.926 µM
GI50 (A498 renal): < 0.001 µM
TGI (A498 renal): 0.227 µM

CC(C)CCCC(C)[C@H]1CC[C@H]2NCCCC[C@]12C (stereo partly drawn)
TGI (HCT-15 colon): 6.91 µM
TGI (OVCAR-4 ovarian): 17.4 µM
TGI (SN12C renal): 18.7 µM
TGI (786-0 renal): 10.5 µM
TGI (MALME-3M melanoma): 16.4 µM
TGI (A549 NSCLC): 31.7 µM
TGI (SF-539 CNS): 19.5 µM
TGI (LOX IMVI melanoma): 4.23 µM
TGI (COLO 205 colon): 3.14 µM
TGI (U251 CNS): 5.88 µM
TGI (CCRF-CEM leukemia): 4.16 µM
TGI (UO-31 renal): 20.7 µM
TGI (MDA-N): 3.99 µM
TGI (SK-MEL-5 melanoma): 3.39 µM
TGI (OVCAR-5 ovarian): 6.03 µM
TGI (RXF 393 renal): 4.62 µM
TGI (SK-MEL-28 melanoma): 5.57 µM
TGI (SW-620 colon): 9.84 µM
TGI (MOLT-4 leukemia): 6.32 µM
TGI (HOP-92 NSCLC): 15.5 µM
TGI (SF-295 CNS): 5.2 µM
TGI (KM12 colon): 6.96 µM
TGI (K-562 leukemia): 6.61 µM
TGI (MDA-MB-231 breast): 9.36 µM
TGI (UACC-62 melanoma): 3.91 µM
TGI (OVCAR-8 ovarian): > 25.4 µM
TGI (HT29 colon): 5.54 µM
TGI (ACHN renal): 4.78 µM
TGI (SNB-75 CNS): 16 µM
TGI (NCI-H226 lung): 29 µM
TGI (SK-OV-3 ovarian): 28.4 µM
TGI (UACC-257 melanoma): 9.37 µM
TGI (IGROV1 ovarian): 19.8 µM
TGI (HCT-116 colon): 20 µM
TGI (TK-10 renal): 11.9 µM
TGI (CAKI-1 renal): 22.8 µM
TGI (NCI-H460 lung): 4.25 µM
TGI (NCI-H23 lung): 23.8 µM
TGI (MDA-MB-435): 4.1 µM
TGI (HCC-2998 colon): 2.72 µM
TGI (HL-60(TB) leukemia): 5.91 µM
TGI (OVCAR-3 ovarian): 31.7 µM
TGI (SF-268 CNS): 32.2 µM
TGI (SK-MEL-2 melanoma): 7.82 µM
TGI (MCF7 breast): 4.37 µM
TGI (SR leukemia): 6.23 µM
TGI (RPMI-8226 leukemia): 4.01 µM
TGI (NCI/ADR-RES ovarian): 20.7 µM
TGI (EKVX NSCLC): 5.23 µM
TGI (HOP-62 NSCLC): 29.1 µM
TGI (M14 melanoma): 4.29 µM
TGI (T-47D breast): 8.93 µM
TGI (PC-3 prostate): 10.4 µM
TGI (BT-549 breast): 29.9 µM
TGI (SNB-19 CNS): 17.9 µM
TGI (A498 renal): 26.6 µM
TGI (DU-145 prostate): 25.6 µM
TGI (HS 578T breast): 15.8 µM

CCO[C@@H]1OC(=O)[C@](C)(C(C)=O)[C@@H]1C
TGI (OVCAR-4 ovarian): > 100 µM
TGI (SNB-78 CNS): > 100 µM
TGI (SF-539 CNS): > 100 µM
TGI (COLO 205 colon): > 100 µM
TGI (U251 CNS): > 100 µM
TGI (CCRF-CEM leukemia): 89.5 µM
TGI (UO-31 renal): > 100 µM
TGI (KM20L2 colon): > 100 µM
TGI (OVCAR-5 ovarian): > 100 µM
TGI (RXF 393 renal): > 100 µM
TGI (SK-MEL-28 melanoma): > 100 µM
TGI (MOLT-4 leukemia): > 100 µM
TGI (HOP-92 NSCLC): > 100 µM
TGI (SF-295 CNS): > 100 µM
TGI (KM12 colon): > 100 µM
TGI (K-562 leukemia): > 100 µM
TGI (UACC-62 melanoma): > 100 µM
TGI (HT29 colon): > 100 µM
TGI (ACHN renal): > 100 µM
TGI (SNB-75 CNS): 98.4 µM
TGI (SK-OV-3 ovarian): > 100 µM
TGI (UACC-257 melanoma): > 100 µM
TGI (IGROV1 ovarian): > 100 µM
TGI (NCI-H460 lung): > 100 µM
TGI (NCI-H23 lung): 60.1 µM
TGI (DMS 114 small cell lung): > 100 µM
TGI (HL-60(TB) leukemia): 79.6 µM
TGI (OVCAR-3 ovarian): > 100 µM
TGI (NCI-H522 lung): > 100 µM
TGI (SF-268 CNS): 67.8 µM
TGI (LXFL 529 NSCLC): > 100 µM
TGI (SK-MEL-2 melanoma): > 100 µM
TGI (SR leukemia): > 100 µM
TGI (RPMI-8226 leukemia): > 100 µM
TGI (HOP-62 NSCLC): > 100 µM
TGI (M14 melanoma): > 100 µM
TGI (SNB-19 CNS): > 100 µM
TGI (A498 renal): > 100 µM
TGI (M19-MEL melanoma): > 100 µM
